Test results as given in PubChem BioAssay AID330 (DTP/NCI, 2004).
Values joined by “and” are separate entries in the source; they are usually repeats but may differ in a detail not shown here. Equal values may be shown once. Toxic doses and inconclusive results are not listed.

Test system: P388 leukemia ip, CD2F1 mice, survival T/C
Experiment: NCI In Vivo Anticancer Drug Screen. Data for tumor model P388 Leukemia (intraperitoneal) in CD2F1 (CDF1) mice
Conditions: endpoint: median survival time, higher = longer survival
Method in brief: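 Mice carrying the transplanted tumor received test compound or vehicle. Survival was recorded in each group, and the value is the treated-group measurement divided by that of the vehicle-treated control group.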

[1] = dose: 60.0 mg/kg/injection, schedule: Q01DX005 (ip), vehicle: saline with Tween-80
[2] = dose: 120.0 mg/kg/injection, schedule: Q01DX005 (ip), vehicle: saline with Tween-80
[3] = dose: 50.0 mg/kg/injection, schedule: Q01DX009 (ip), vehicle: saline with Tween-80
[4] = dose: 100.0 mg/kg/injection, schedule: Q01DX009 (ip), vehicle: saline with Tween-80
[5] = dose: 12.5 mg/kg/injection, schedule: Q01DX009 (ip), vehicle: saline
[6] = dose: 25.0 mg/kg/injection, schedule: Q01DX009 (ip), vehicle: saline
[7] = dose: 50.0 mg/kg/injection, schedule: Q01DX009 (ip), vehicle: saline
[8] = dose: 50.0 mg/kg/injection, schedule: Q01DX005 (ip), vehicle: Klucel (hydroxypropylcellulose) (HPC)
[9] = dose: 100.0 mg/kg/injection, schedule: Q01DX005 (ip), vehicle: Klucel (hydroxypropylcellulose) (HPC)
[10] = dose: 200.0 mg/kg/injection, schedule: Q01DX005 (ip), vehicle: Klucel (hydroxypropylcellulose) (HPC)
[11] = dose: 50.0 mg/kg/injection, schedule: Q01DX009 (ip), vehicle: Klucel (hydroxypropylcellulose) (HPC)
[12] = dose: 100.0 mg/kg/injection, schedule: Q01DX009 (ip), vehicle: Klucel (hydroxypropylcellulose) (HPC)
[13] = dose: 25.0 mg/kg/injection, schedule: Q01DX009 (ip), vehicle: Klucel (hydroxypropylcellulose) (HPC)
[14] = dose: 25.0 mg/kg/injection, schedule: Q01DX005 (ip), vehicle: Klucel (hydroxypropylcellulose) (HPC)
[15] = dose: 200.0 mg/kg/injection, schedule: Q01DX009 (ip), vehicle: saline with Tween-80
[16] = dose: 50.0 mg/kg/injection, schedule: Q01DX005 (ip), vehicle: saline with Tween-80
[17] = dose: 100.0 mg/kg/injection, schedule: Q01DX005 (ip), vehicle: saline with Tween-80
[18] = dose: 200.0 mg/kg/injection, schedule: Q01DX005 (ip), vehicle: saline with Tween-80

With COC1CC(OC2CCC3(C)C(CCC45CCC(C6=CC(=O)OC6)C(C)(CCC43)C5=O)C2)OC(C)C1O (stereo not drawn) the T/C (dose: 1.56 mg/kg/injection, schedule: Q01DX005 (ip), vehicle: Klucel (hydroxypropylcellulose) (HPC)) was 90 % of control, the T/C (dose: 3.12 mg/kg/injection, schedule: Q01DX005 (ip), vehicle: Klucel (hydroxypropylcellulose) (HPC)) was 97 % of control and the T/C (dose: 6.25 mg/kg/injection, schedule: Q01DX005 (ip), vehicle: Klucel (hydroxypropylcellulose) (HPC)) was 100 % of control. The T/C (dose: 12.5 mg/kg/injection, schedule: Q01DX005 (ip), vehicle: Klucel (hydroxypropylcellulose) (HPC)) was 88 % of control and 91 % of control.

For Cc1nc(Br)c(Br)n1C, the T/C [1] was 93 % of control and the T/C [2] was 88 % of control.

In the case of O=c1c(Br)cc(CN2CCOCC2)cc(CN2CCOCC2)c1O, the T/C [3] is reported as 112 % of control and the T/C [4] is reported as 116 % of control.

COC(=O)/C(=C\C[C@@H]1CCCC[C@H]1O)CC[Se]c1ccccc1 was tested, and the T/C (dose: 50.0 mg/kg/injection, schedule: Q01DX009 (ip), vehicle: distilled water + Tween-80 + alcohol) was 108 % of control, the T/C (dose: 100.0 mg/kg/injection, schedule: Q01DX009 (ip), vehicle: distilled water + Tween-80 + alcohol) was 103 % of control and the T/C (dose: 200.0 mg/kg/injection, schedule: Q01DX009 (ip), vehicle: distilled water + Tween-80 + alcohol) was 98 % of control.

COC[N+](C)(C)c1ccc(/C=C/C=O)cc1 was tested, and the T/C [5] was 114 % of control, the T/C [6] was 109 % of control and the T/C [7] was 118 % of control and 98 % of control.

With CN(C)c1ccc(/C=C(\C#N)C(N)=S)cc1 the T/C [7] was 100 % of control, the T/C (dose: 100.0 mg/kg/injection, schedule: Q01DX009 (ip), vehicle: saline) was 100 % of control and the T/C (dose: 200.0 mg/kg/injection, schedule: Q01DX009 (ip), vehicle: saline) was 106 % of control.

With CCOP(=O)(OCC)C(=C(Cl)Cl)C(Cl)Cl the T/C (dose: 12.5 mg/kg/injection, schedule: Q01DX009 (ip), vehicle: saline with Tween-80) was 100 % of control and 104 % of control, the T/C (dose: 25.0 mg/kg/injection, schedule: Q01DX009 (ip), vehicle: saline with Tween-80) was 105 % of control and 115 % of control and the T/C [3] was 113 % of control and 118 % of control and 124 % of control. The T/C [4] was 116 % of control.

CC(=O)NC(c1nc2cc(C)c(C)cc2[nH]1)c1nc2cc(C)c(C)cc2[nH]1 was tested, and the T/C [8] was 101 % of control, the T/C [9] was 106 % of control and the T/C [10] was 110 % of control.

With O=C(Nc1cccc(Cl)c1)OCCN1CCNC1=S the T/C [11] was 116 % of control, the T/C [12] was 106 % of control and the T/C (dose: 200.0 mg/kg/injection, schedule: Q01DX009 (ip), vehicle: Klucel (hydroxypropylcellulose) (HPC)) was 105 % of control.

With C=C(Br)CC(N)C(=O)O (stereo not drawn) the T/C [8] was 116 % of control and the T/C [9] was 106 % of control.

With O=[N+]([O-])c1ccc2c3c(ccc([N+](=O)[O-])c13)CC2 the T/C [13] was 93 % of control, the T/C [11] was 93 % of control and the T/C [12] was 91 % of control.

COc1cccc(C2CC(C)(O)Oc3cc4c(cc32)OCO4)c1O (stereo not drawn) was tested, and the T/C (dose: 60.0 mg/kg/injection, schedule: Q01DX005 (ip), vehicle: Klucel (hydroxypropylcellulose) (HPC)) was 100 % of control, the T/C (dose: 120.0 mg/kg/injection, schedule: Q01DX005 (ip), vehicle: Klucel (hydroxypropylcellulose) (HPC)) was 100 % of control and the T/C (dose: 240.0 mg/kg/injection, schedule: Q01DX005 (ip), vehicle: Klucel (hydroxypropylcellulose) (HPC)) was 92 % of control.

For O=C1c2ccccc2C(=O)c2c1cccc2N1C(=O)C=CC1=O, the T/C [1] was 101 % of control, the T/C [2] was 95 % of control and the T/C (dose: 240.0 mg/kg/injection, schedule: Q01DX005 (ip), vehicle: saline with Tween-80) was 93 % of control.

In the case of Fc1cccc(C(Nc2nncs2)Nc2nncs2)c1, the T/C [8] is reported as 108 % of control and 97 % of control, the T/C [9] is reported as 112 % of control and 114 % of control and the T/C (dose: 400.0 mg/kg/injection, schedule: Q01DX005 (ip), vehicle: Klucel (hydroxypropylcellulose) (HPC)) is reported as 159 % of control.

In the case of CC(=O)OCC12C(OC(=O)c3ccccc3)C(=O)C3C(OC(C)=O)C1(OC3(C)C)C(C)(O)CC(OC(C)=O)C2OC(=O)/C=C/c1ccccc1 (stereo not drawn) (tested in a mixture with another compound), the T/C [14] is reported as 100 % of control, the T/C [8] is reported as 100 % of control and the T/C [9] is reported as 102 % of control. The T/C [10] was 102 % of control.

In the case of CCOC(=O)c1cnc2c(ccc3cc(OC)ccc32)c1NCCCN(CC)CC, the T/C [14] is reported as 97 % of control, the T/C [8] is reported as 97 % of control and the T/C [9] is reported as 100 % of control. For the same compound, the T/C [10] was 97 % of control.

In the case of CN(C)C1=Nc2ccccc2NC(=O)C1, the T/C [8] is reported as 105 % of control, the T/C [9] is reported as 105 % of control and the T/C [10] is reported as 105 % of control.

With O=S(=O)(O)C(F)(F)F the T/C (dose: 25.0 mg/kg/injection, schedule: Q01DX005 (ip), vehicle: water) was 101 % of control, the T/C (dose: 50.0 mg/kg/injection, schedule: Q01DX005 (ip), vehicle: water) was 100 % of control and the T/C (dose: 200.0 mg/kg/injection, schedule: Q01DX005 (ip), vehicle: water) was 100 % of control.

For Cn1c(=O)c2c(ncn2C2C(=O)NNC2=O)n(C)c1=O, the T/C (dose: 100.0 mg/kg/injection, schedule: Q01DX001 (ip), vehicle: Klucel (hydroxypropylcellulose) (HPC)) was 100 % of control, the T/C (dose: 200.0 mg/kg/injection, schedule: Q01DX001 (ip), vehicle: Klucel (hydroxypropylcellulose) (HPC)) was 93 % of control and the T/C (dose: 400.0 mg/kg/injection, schedule: Q01DX001 (ip), vehicle: Klucel (hydroxypropylcellulose) (HPC)) was 94 % of control.

With CN(C)c1ccc(-c2nc(-c3ccccc3)c(-c3ccccc3)[nH]2)cc1 the T/C [3] was 104 % of control, the T/C [4] was 100 % of control and the T/C [15] was 104 % of control. For the same compound, the T/C (dose: 400.0 mg/kg/injection, schedule: Q01DX009 (ip), vehicle: saline with Tween-80) was 106 % of control.

In the case of CC(C)=Nc1c(C(N)=O)c(-c2ccccc2)c(-c2ccccc2)n1-c1ccccc1, the T/C [3] is reported as 107 % of control, the T/C [4] is reported as 107 % of control and the T/C [15] is reported as 98 % of control.

Nc1nc(SCC(=O)O)[nH]c(=O)c1N was tested, and the T/C [16] was 91 % of control, the T/C [17] was 104 % of control and the T/C [18] was 104 % of control.

COC(=O)C1=CO[C@@H](OC2OC(CO)C(O)C(O)C2O)[C@H]2[C@@H](C)[C@@H](O)[C@@H](O)[C@@H]12 (stereo partly drawn) was tested, and the T/C (dose: 5.25 mg/kg/injection, schedule: Q01DX005 (ip), vehicle: Klucel (hydroxypropylcellulose) (HPC)) was 100 % of control, the T/C (dose: 10.5 mg/kg/injection, schedule: Q01DX005 (ip), vehicle: Klucel (hydroxypropylcellulose) (HPC)) was 95 % of control and the T/C (dose: 21.0 mg/kg/injection, schedule: Q01DX005 (ip), vehicle: Klucel (hydroxypropylcellulose) (HPC)) was 104 % of control. For the same compound, the T/C (dose: 42.0 mg/kg/injection, schedule: Q01DX005 (ip), vehicle: Klucel (hydroxypropylcellulose) (HPC)) was 99 % of control.

For CN=C(c1ccc(NC(=O)c2cc(C(=O)Nc3ccc(C(=NC)N(C)C)cc3)cc([N+](=O)[O-])c2)cc1)N(C)C, the T/C (dose: 6.25 mg/kg/injection, schedule: Q01DX005 (ip), vehicle: saline) was 101 % of control and the T/C (dose: 12.5 mg/kg/injection, schedule: Q01DX005 (ip), vehicle: saline) was 98 % of control.

CCCCCCCCCCCCCCCCCCSC1=CC(=O)C(Cl)=C(Cl)C1=O was tested, and the T/C (dose: 10.0 mg/kg/injection, schedule: Q01DX009 (ip), vehicle: Klucel (hydroxypropylcellulose) (HPC)) was 97 % of control and the T/C (dose: 20.0 mg/kg/injection, schedule: Q01DX009 (ip), vehicle: Klucel (hydroxypropylcellulose) (HPC)) was 90 % of control.

In the case of O=S1(=O)C2C=CC1CCCC2, the T/C [5] is reported as 95 % of control, the T/C [6] is reported as 90 % of control and the T/C [7] is reported as 92 % of control and 96 % of control.

With CCN1C(=O)NS(=O)(=O)c2ccccc21 the T/C [16] was 94 % of control, the T/C [17] was 107 % of control and the T/C [18] was 97 % of control.

For COc1cc(C)cc(OC)c1, the T/C [14] was 101 % of control, the T/C [8] was 100 % of control and the T/C [9] was 100 % of control. The T/C [10] was 110 % of control.

In the case of COC(=O)C(CCC(=O)CCl)N1C(=O)c2ccccc2C1=O (stereo not drawn), the T/C [13] is reported as 108 % of control and the T/C [11] is reported as 106 % of control.
